In assay [1] the target is T1, P2X7 (Homo sapiens, UniProt Q99572).
T1 sequence (Q99572 1-595): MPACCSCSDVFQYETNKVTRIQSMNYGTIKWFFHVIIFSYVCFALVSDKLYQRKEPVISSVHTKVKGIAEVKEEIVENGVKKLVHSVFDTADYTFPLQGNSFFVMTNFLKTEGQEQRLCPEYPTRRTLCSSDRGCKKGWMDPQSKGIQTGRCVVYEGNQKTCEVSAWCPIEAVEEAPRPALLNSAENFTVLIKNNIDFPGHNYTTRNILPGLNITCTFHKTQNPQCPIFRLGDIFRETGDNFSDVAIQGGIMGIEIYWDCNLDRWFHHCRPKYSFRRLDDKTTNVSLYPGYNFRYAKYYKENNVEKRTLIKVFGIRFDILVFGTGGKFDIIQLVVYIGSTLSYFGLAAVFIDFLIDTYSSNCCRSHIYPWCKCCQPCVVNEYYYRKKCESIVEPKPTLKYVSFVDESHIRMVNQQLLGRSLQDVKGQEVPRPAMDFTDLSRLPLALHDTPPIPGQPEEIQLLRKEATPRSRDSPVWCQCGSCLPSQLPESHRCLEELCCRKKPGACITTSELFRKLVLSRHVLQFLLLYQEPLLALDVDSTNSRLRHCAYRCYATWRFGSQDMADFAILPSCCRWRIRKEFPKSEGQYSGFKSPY
The assay is described as follows: IL-1β release assay in THP-1 cells (sandwich ELISA). More on the design: release of mature IL-1β in the culture medium of THP-1 cells; endogenous in cells; host or cells: THP-1 cells (PMA-differentiated, LPS-primed). Conditions: PMA, LPS primed, stimulated with 0.8 mM BzATP, mature IL-1β release, read-out: hTHP-1/IL-ib IC50. It counts as cell-based. How it is done:
The activation of P2X7 by ATP leads to a fast transient activation of cells resulting in influx of Ca^2+ followed by conversion of pro-IL-1β to active IL-1β. The functional activity of P2X7 compounds was measured by the release of mature IL-1β in the culture medium of THP-1 cells, detected by sandwich ELISA. Cells were maintained in complete growth medium (RPMI 1640+10% HI-FCS+2 mM L-glutamine+1×PS). […] THP-1 cells were harvested from the flask in 50 ml by centrifugation for 3 min at 100 g. The cells were resuspended to 2×10^5 cells/ml in medium supplemented with 0.5 μM PMA and incubated. The cells were washed and resuspended to 1.5×10^5 cells/ml in medium complemented with 10 ng/ml LPS, and the cells were primed for 4 h at 37° C., 5% CO2. After addition of 20 μL of prediluted test compounds, blank, standard and control reagents, cells were incubated for a further 20 min at 37° C. and stimulated with 0.8 mM BzATP for 30 minutes. The cells were centrifuged, supernatant was collected and the presence of mature IL-1β was detected using Dual human IL-1b kit following manufacturer's instruction. The tetrahydrobenzodiazepine analogs effectively modulated the activity of P2X7 in the cells as measured by the levels of pro-inflammatory cytokine IL-1β, which is released by the activation of P2X7 receptor.

The target in assay [2] is T1, P2X7. The assay is described as follows: Pore permeation assay (YO PRO dye uptake, BzATP-induced). Conditions: HEK293 transfected with human P2X7 receptor; YO PRO dye 1 uM, BzATP 10 uM; read-out: hP2X7 IC50. Further details: expressed in transfected cells; host or cells: HEK293. It counts as cell-based. How it is done:
Agonist-induced pore formation was determined by measuring cellular uptake of YO PRO fluorescence dye in HEK293 transfected with human P2X7 receptor. A HEK293 cell over expressing human P2X7 was harvested using HQTase reagent to detach the cells from T75 cm flask. The harvested cells are centrifuged @ 1200 rpm for 5 min at room temperature. The viability of cells was determined by Trypan blue dye and the cells are plated @ 10,000 cell/well in 50 ul volume in a 384 W BD Poly lysine coated plate and incubated overnight at 37 C. After overnight incubation, the culture medium was replaced with 35 ul/well assay buffer (5 mM KCl, 0.1 mM CaCl2, 5 mM Glucose, 10 mM HEPES buffer pH7.4 containing 125 mM NaCl. The serial dilution of compounds was performed using Bravo liquid handling instrument and the compounds were added using Bravo to the cell assay plate starting at 2.5 uM with three dilutions for 10 points. The positive control inhibitor compound was added to column 23. The plate was shaken slowly on a plate shaker for 10 seconds. The cells were incubated with the compound for 20 minutes at room temperature. After the incubation period, YO PRO dye (1 uM) along with BzATP (10 uM) were added to cells at 10 ul/well. The plate was centrifuged at 1000 rpm for 5 seconds and incubated at room temperature for 30 minutes. The uptake of YO PRO dye into the cells was measured using Envision Fluorescence plate reader instrument (Perkin Elmer).

Results on 22 compounds are retold here after US9399623B2, “Quinoline derivatives and their use in neurodegenerative diseases” (Merck Patent GmbH, priority 2014, dated 2016).

Turning to `O=C(NCC1CCC(F)(F)CC1)c1c(Cl)ccc2nc(N3CCC(C(F)F)C3)ccc12` (centres unmarked) [Compound 59, 6-Chloro-2-(3-difluoromethyl-pyrrolidin-1-yl)-quinoline-5-carboxylic acid (4,4-difluoro-cyclohexylmethyl)-amide], the IC50 is 101 to 500 nM in assay [1] and 10 to 100 nM in assay [2].

Turning to `CCOC(=O)C1CCCN(c2ccc3c(C(=O)NCC4CCC(F)(F)CC4)c(Cl)ccc3n2)C1` (centres unmarked) [Compound 55, 1-{6-Chloro-5-[(4,4-difluoro-cyclohexylmethyl)-carbamoyl]-quinolin-2-yl}-piperidine-3-carboxylic acid ethyl ester], the figures for the IC50 in assay [1] and in assay [2] were more than 1000 nM and 10 to 100 nM, respectively.

Regarding `O=C(NCC1(O)CCC(F)(F)CC1)c1c(Cl)ccc2nc(N3CCC(N4CCCC4)C3)ccc12` (centres unmarked) [Compound 27, 6-Chloro-2-(3-pyrrolidinyl-pyrrolidin-1-yl)-quinoline-5-carboxylic acid (4,4-difluoro-1-hydroxy-cyclohexylmethyl)-amide], the IC50 in assay [1] and in assay [2] was 10 to 100 nM in each case.

`C[C@@H]1CCC[C@](O)(CNC(=O)c2c(Cl)ccc3nc(N4CCC(F)C4)ccc23)C1` (stereo partly drawn) [Compound 5, 6-Chloro-2-(3-fluoropyrrolidin-1-yl)-quinoline-5-carboxylic acid ((1R,3R)-1-hydroxy-3-methyl-cyclohexylmethyl)-amide]: the IC50 in assay [1] was 10 to 100 nM; in assay [2], less than 10 nM.

Take `C[C@@H]1CCC[C@](O)(CNC(=O)c2c(Cl)ccc3nc(N4CC[C@H](F)C4)ccc23)C1` [Compound 9, 6-Chloro-2-(3-(S)-fluoropyrrolidin-1-yl)-quinoline-5-carboxylic acid ((1R,3R)-1-hydroxy-3-methyl-cyclohexylmethyl)-amide]: the IC50 in assay [1] is 10 to 100 nM; in assay [2], less than 10 nM.

On to `O=C(NCC1CCC(F)(F)CC1)c1c(Cl)ccc2nc(C3CCCCC3)ccc12` [Compound 48, 6-Chloro-2-cyclohexyl-quinoline-5-carboxylic acid (4,4-difluoro-cyclohexylmethyl)-amide], for which the results for the IC50 in assay [1] and in assay [2] were 101 to 500 nM and 10 to 100 nM, respectively.

Take `COCCCOc1ccc2c(C(=O)NCC3(O)CCC(F)(F)CC3)c(Cl)ccc2n1` [Compound 62, 6-Chloro-2-(3-methoxy-propoxy)-quinoline-5-carboxylic acid (4,4-difluoro-1-hydroxy-cyclohexyl methyl)-amide]: the IC50 in assay [1] is 101 to 500 nM; in assay [2], 10 to 100 nM.

For the compound `O=C(NCC1CCC(F)(F)CC1)c1c(Cl)ccc2nc(C3=CCOCC3)ccc12` [Compound 31, 6-Chloro-2-(3,6-dihydro-2H-pyran-4-yl)-quinoline-5-carboxylic acid (4,4-difluoro-cyclo hexyl methyl)-amide], the IC50 in assay [1] is 101 to 500 nM; in assay [2], 10 to 100 nM.

For `O=C(NCC1(O)CCCC(F)(F)C1)c1c(Cl)ccc2nc(N3CCC3)ccc12` (centres unmarked) [Compound 54, 2-(Azetidin-1-yl)-6-chloro-quinoline-5-carboxylic acid (3,3-difluoro-1-hydroxycyclohexylmethyl)-amide], the results for the IC50 in assay [1] and in assay [2] were 101 to 500 nM and 10 to 100 nM, respectively.

On to `O=C(NCC1CCC(F)(F)CC1)c1c(Cl)ccc2nc(C3=CCCC3)ccc12` [Compound 42, 6-Chloro-2-cyclopent-1-enyl-quinoline-5-carboxylic acid (4,4-difluoro-cyclohexyl methyl)-amide], for which the results for the IC50 in assay [1] and in assay [2] were 101 to 500 nM and 10 to 100 nM, respectively.

On to `O=C(NCC1CCC(F)(F)CC1)c1c(Cl)ccc2nc(N3CCC(CCO)C3)ccc12` (centres unmarked) [Compound 56], for which the IC50 in assay [1] and in assay [2] was 10 to 100 nM throughout.

As for `COCCOc1ccc2c(C(=O)NCC3CCC(F)(F)CC3)c(Cl)ccc2n1` [Compound 70, 6-Chloro-2-(2-methoxy-ethoxy)-quinoline-5-carboxylic acid (4,4-difluoro-cyclohexyl methyl)-amide], the IC50 fell in the range of 101 to 500 nM in assay [1] and 10 to 100 nM in assay [2].

On to `O=C(NCC1(O)CCCCCC1)c1c(Cl)ccc2ncccc12` [Compound 65], for which the IC50 was 101 to 500 nM in assay [1] and 10 to 100 nM in assay [2].

On to `O=C(NCC1CCC(F)(F)CC1)c1c(Cl)ccc2nc(N3CCC(NCCO)C3)ccc12` (centres unmarked) [Compound 21], for which the IC50 in assay [1] and in assay [2] was 10 to 100 nM in each case.

Consider `O=C(NCC1CCCC(F)(F)C1)c1c(Cl)ccc2nc(N3CC[C@@H](F)C3)ccc12` (stereo partly drawn) [Compound 1, 6-Chloro-2-((R)-3-fluoropyrrolidin-1-yl)-quinoline-5-carboxylic acid (3,3-difluoro-cyclohexylmethyl)-amide], for which the IC50 in assay [1] was 10 to 100 nM; in assay [2], less than 10 nM.

As for `C[C@@H]1CCC[C@](O)(CNC(=O)c2c(Cl)ccc3nc(N4CCC(N(C)C)C4)ccc23)C1` (stereo partly drawn) [Compound 6, 6-Chloro-2-(3-dimethylamino-pyrrolidin-1-yl)-quinoline-5-carboxylic acid ((1R,3R)-1-hydroxy-3-methyl-cyclohexylmethyl)-amide], the IC50 in assay [1] is 10 to 100 nM; in assay [2], less than 10 nM.

As for `O=C(NCC1CCC(F)(F)CC1)c1c(Cl)ccc2nc(N3CC[C@H](CCO)C3)ccc12` [Compound 11, 6-Chloro-2-((R)-3-hydroxyethyl-pyrrolidin-1-yl)-quinoline-5-carboxylic acid (4,4-difluoro-cyclohexylmethyl)-amide], the results for the IC50 in assay [1] and in assay [2] were 101 to 500 nM and less than 10 nM, respectively.

`O=C(NCC1(O)CCCC(F)(F)C1)c1c(Cl)ccc2nc(N3CC[C@@H](F)C3)ccc12` (stereo partly drawn) [Compound 37, 6-Chloro-2-((R)-3-fluoropyrrolidin-1-yl)-quinoline-5-carboxylic acid (3,3-difluoro-1-hydroxycyclohexylmethyl)-amide]: the IC50 in assay [1] and in assay [2] was 10 to 100 nM in each case.

For `O=C(NCC1CCC(F)(F)CC1)c1c(Cl)ccc2nc(N3CC[C@H](F)C3)ccc12` [Compound 41, 6-Chloro-2-((S)-3-fluoropyrrolidin-1-yl)-quinoline-5-carboxylic acid (4,4-difluoro-cyclohexylmethyl)-amide], the IC50 in assay [1] and in assay [2] was 10 to 100 nM throughout.

For `CN(C)c1ccc2c(C(=O)NCC3CCC(F)(F)CC3)c(Cl)ccc2n1` [Compound 44], the IC50 in assay [1] and in assay [2] was 10 to 100 nM throughout.

For `O=C(NCC1CCCC(F)(F)C1)c1c(Cl)ccc2nc(N3CCC(CO)C3)ccc12` (centres unmarked) [Compound 35, 6-Chloro-2-(3-hydroxymethylpyrrolidin-1-yl)-quinoline-5-carboxylic acid (3,3-difluoro-cyclohexylmethyl)-amide], the IC50 in assay [1] and in assay [2] was 10 to 100 nM in each case.

With `O=C(NCC1CCC(F)(F)CC1)c1c(Cl)ccc2nc(CCCO)ccc12` [Compound 64, 6-Chloro-2-(3-hydroxy-propyl)-quinoline-5-carboxylic acid (4,4-Difluorocyclohexyl methyl)-amide], the IC50 fell in the range of 101 to 500 nM in assay [1] and 10 to 100 nM in assay [2].
